Laboratory results from US20050197350A1, “Novel quinoline, tetrahydroquinazoline, and pyrimidine derivatives and methods of treatment related to the use thereof” (TAISHO PHARMACEUTICAL CO., LTD., priority 2003, published 2005).

Test system: MCH receptors
Test: MCH receptor activity class (method not given)
[1] = class by percent of control at 10^−7 M or IC50
[2] = MCH receptor activity class 1-3 (percent of control at 10^-7 M or IC50)
[3] = MCH receptor, class by percent of control at 10^-7 M or IC50
[4] = class by percent of control at 10^-7 M or IC50
[5] = activity class 1-3: percent of control at 10^-7 M or IC50
[6] = class 1-3 by percent of control at 10^-7 M or IC50
[7] = activity class per percent of control at 10^-7 M or IC50

Cc1cc(N(C)C)nc(NC[C@H]2CC[C@@H](NC(=O)c3ccc(C(F)(F)F)c(F)c3)CC2)n1 [compound 2747]
class [1]: 3 (Class 3 The value of percent of control at 10^−7 M was more than 60% or the value of IC50 was more than 200 nM.)

COC(=O)c1scc(C)c1NC(=S)N[C@H]1CC[C@@H](Nc2cc(N(C)C)c3ccccc3n2)CC1 [compound 2311]
class [2]: 2 (Class 2: The value of percent of control at 10^−7 M was from 40% to 60% or the value of IC′50 was from 50 nM to 200 nM.)

CSc1cccc(NC(=S)N[C@H]2CC[C@@H](Nc3nc4c(c(N(C)C)n3)CCCC4)CC2)c1 [compound 2004]
class [3]: 3 (Class 3 The value of percent of control at 10^−7 M was more than 60% or the value of IC50 was more than 200 nM.)

CC(C)c1cccc(C(C)C)c1NC(=O)NC[C@H]1CC[C@@H](Nc2nccc(N(C)C)n2)CC1 [compound 2442]
class [2]: 1 (Class 1: The value of percent of control at 10^−7 M was less than 40% or the value of IC50 was less than 50 nM.)

CN(C)c1nc(N[C@H]2CC[C@@H](NC(=S)Nc3ccccc3OC(F)(F)F)CC2)nc2c1CCCC2 [compound 1968]
class [3]: 3 (Class 3 The value of percent of control at 10^−7 M was more than 60% or the value of IC50 was more than 200 nM.)

CN(C)c1ccnc(N[C@H]2CC[C@@H](NC(=S)Nc3ccc(C#N)cc3)CC2)n1 [compound 2258]
class [4]: 2 (Class 2: The value of percent of control at 10^−7 M was from 40% to 60% or the value of IC′50 was from 50 nM to 200 nM.)

N4,N4-dimethyl-N2-(cis-4-{[(2,4,5-trimethoxybenzyl)amino]-methyl}cyclohexyl)-5,6,7,8-tetrahydroquinazoline-2,4-diamine [compound 1416]
class [4]: 1 (Class 1: The value of percent of control at 10^−7 M was less than 40% or the value of IC50 was less than 50 nM.)

CN(C)c1cc(N[C@H]2CC[C@@H](CNC(=O)Nc3ccc(C#N)cc3)CC2)nc2ccccc12 [compound 2388]
class [2]: 3 (Class 3 The value of percent of control at 10^−7 M was more than 60% or the value of IC50 was more than 200 nM.)

Cc1ccc(OC(=O)N[C@H]2CC[C@@H](Nc3nc4c(c(N(C)C)n3)CCCC4)CC2)cc1 [compound 1594]
class [5]: 3 (Class 3 The value of percent of control at 10^−7 M was more than 60% or the value of IC50 was more than 200 nM.)

CN(C)c1nc(N[C@H]2CC[C@@H](NC(=O)c3ccc(I)cc3)CC2)nc2c1CCCC2 [compound 477]
class [6]: 3 (Class 3 The value of percent of control at 10^−7 M was more than 60% or the value of IC50 was more than 200 nM.)

CN(C)c1nc(N[C@H]2CC[C@@H](NC(=O)c3cc(C(C)(C)C)nn3Cc3ccc(Cl)cc3Cl)CC2)nc2c1CCCC2 [compound 577]
class [6]: 3 (Class 3 The value of percent of control at 10^−7 M was more than 60% or the value of IC50 was more than 200 nM.)

CN(C)c1ccc(NC(=O)N[C@H]2CC[C@@H](Nc3nc4c(c(N(C)C)n3)CCCC4)CC2)cc1 [compound 1922]
class [3]: 3 (Class 3 The value of percent of control at 10^−7 M was more than 60% or the value of IC50 was more than 200 nM.)

CN(C)c1ccnc(N[C@H]2CC[C@@H](CNC(=O)c3ccccc3SC(F)F)CC2)n1 [compound 427]
class [6]: 3 (Class 3 The value of percent of control at 10^−7 M was more than 60% or the value of IC50 was more than 200 nM.)

CN(C)c1nc(N[C@H]2CC[C@@H](CNC(=O)c3c(F)cccc3Cl)CC2)nc2c1CCCC2 [compound 667]
class [4]: 2 (Class 2: The value of percent of control at 10^−7 M was from 40% to 60% or the value of IC′50 was from 50 nM to 200 nM.)

CN(C)c1ccnc(N[C@H]2CC[C@@H](CNC(=O)c3ccc4nonc4c3)CC2)n1 [compound 368]
class [4]: 3 (Class 3 The value of percent of control at 10^−7 M was more than 60% or the value of IC50 was more than 200 nM.)

COc1cc(OC)c(CNC[C@H]2CC[C@@H](Nc3nccc(N(C)C)n3)CC2)cc1Br [compound 1265]
class [4]: 1 (Class 1: The value of percent of control at 10^−7 M was less than 40% or the value of IC50 was less than 50 nM.)

CN(C)c1cc(N[C@H]2CC[C@@H](NC(=O)c3ccc([N+](=O)[O-])s3)CC2)nc2ccccc12 [compound 688, N-(cis-4-{[4-(dimethylamino)quinolin-2-yl]amino}cyclohexyl)-5-nitrothiophene-2-carboxamide]
class [4]: 1 (Class 1: The value of percent of control at 10^−7 M was less than 40% or the value of IC50 was less than 50 nM.)

CN(C)c1cc(N[C@H]2CC[C@@H](NC(=O)c3ccccc3COc3ccccc3)CC2)nc2ccccc12 [compound 760]
class [4]: 3 (Class 3 The value of percent of control at 10^−7 M was more than 60% or the value of IC50 was more than 200 nM.)

COc1ccc2ccccc2c1CN[C@H]1CC[C@@H](Nc2cc(N(C)C)c3ccccc3n2)CC1 [compound 1091]
class [7]: 3 (Class 3 The value of percent of control at 10^−7 M was more than 60% or the value of IC50 was more than 200 nM.)

CN(C)c1cc(N[C@H]2CC[C@@H](NC(=O)Cc3cccs3)CC2)nc2ccccc12 [compound 53]
class [3]: 3 (Class 3 The value of percent of control at 10^−7 M was more than 60% or the value of IC50 was more than 200 nM.)

Cc1cccc(C(C)C)c1NC(=O)NC[C@H]1CC[C@@H](Nc2cc(N(C)C)c3ccccc3n2)CC1 [compound 2379]
class [2]: 2 (Class 2: The value of percent of control at 10^−7 M was from 40% to 60% or the value of IC′50 was from 50 nM to 200 nM.)

CN(C)c1cc(N[C@H]2CC[C@@H](NC(=O)Nc3ccccc3Cl)CC2)nc2ccccc12 [compound 2089]
class [4]: 2 (Class 2: The value of percent of control at 10^−7 M was from 40% to 60% or the value of IC′50 was from 50 nM to 200 nM.)

Cc1cc(C)c(CCNC[C@H]2CC[C@@H](Nc3nccc(N(C)C)n3)CC2)c(C)c1 [compound 1527]
class [5]: 3 (Class 3 The value of percent of control at 10^−7 M was more than 60% or the value of IC50 was more than 200 nM.)

CN(C)c1cc(N[C@H]2CC[C@@H](NC(=O)Cc3ccc(Oc4ccccc4)cc3)CC2)nc2ccccc12 [compound 728]
class [4]: 3 (Class 3 The value of percent of control at 10^−7 M was more than 60% or the value of IC50 was more than 200 nM.)

Cc1ccc(N(C)C(=O)N[C@H]2CC[C@@H](Nc3ncc(C)c(N(C)C)n3)CC2)cc1 [compound 3024, N′-(cis-4-{[4-(dimethylamino)-5-methylpyrimidin-2-yl]amino}cyclohexyl)-N-methyl-N-(4-methylphenyl)urea]
class [1]: 1 (Class 1: The value of percent of control at 10^−7 M was less than 40% or the value of IC50 was less than 50 nM.)

CN(C)c1cc(N[C@H]2CC[C@@H](CNCc3cn(C)c4ccccc34)CC2)nc2ccccc12 [compound 1179]
class [4]: 3 (Class 3 The value of percent of control at 10^−7 M was more than 60% or the value of IC50 was more than 200 nM.)

CN(C)c1cc(N[C@H]2CC[C@@H](CNC(=O)c3c(F)ccc(F)c3Cl)CC2)nc2ccccc12 [compound 236]
class [4]: 3 (Class 3 The value of percent of control at 10^−7 M was more than 60% or the value of IC50 was more than 200 nM.)

Cc1cc(F)ccc1NC(=S)N[C@H]1CC[C@@H](Nc2cc(N(C)C)c3ccccc3n2)CC1 [compound 2295]
class [2]: 3 (Class 3 The value of percent of control at 10^−7 M was more than 60% or the value of IC50 was more than 200 nM.)

CC(C(=O)N[C@H]1CC[C@@H](Nc2cc(N(C)C)c3ccccc3n2)CC1)c1ccc(N2Cc3ccccc3C2=O)cc1 (relative stereo) [compound 710]
class [4]: 3 (Class 3 The value of percent of control at 10^−7 M was more than 60% or the value of IC50 was more than 200 nM.)

Cc1cnc(N[C@H]2CC[C@@H](NC(=O)c3cccc(OC(C)C)c3)CC2)nc1N(C)C [compound 2928, N-(cis-4-{[4-(dimethylamino)-5-methylpyrimidin-2-yl]amino}cyclohexyl)-3-isopropoxybenzamide]
class [1]: 2 (Class 2: The value of percent of control at 10^−7 M was from 40% to 60% or the value of IC′50 was from 50 nM to 200 nM.)

COc1cc(CN[C@H]2CC[C@@H](Nc3nccc(N(C)C)n3)CC2)cc(OC)c1 [compound 1221]
class [4]: 3 (Class 3 The value of percent of control at 10^−7 M was more than 60% or the value of IC50 was more than 200 nM.)

Cc1cnc(NC[C@H]2CC[C@@H](NC(=O)c3ccc(C(F)(F)F)c(F)c3)CC2)nc1N(C)C [compound 2727]
class [1]: 3 (Class 3 The value of percent of control at 10^−7 M was more than 60% or the value of IC50 was more than 200 nM.)

CN(C)c1nc(N[C@H]2CC[C@@H](NC(=O)Nc3ccsc3)CC2)nc2c1CCCC2 [compound 1917]
class [3]: 3 (Class 3 The value of percent of control at 10^−7 M was more than 60% or the value of IC50 was more than 200 nM.)

Cc1nc(N[C@H]2CC[C@@H](NC(=O)c3ccc(O)nc3)CC2)nc(N(C)C)c1C [compound 2827]
class [1]: 3 (Class 3 The value of percent of control at 10^−7 M was more than 60% or the value of IC50 was more than 200 nM.)

CN(C)c1ccnc(N[C@H]2CC[C@@H](CNC(=O)Nc3c(F)cc(Br)cc3Br)CC2)n1 [compound 2417]
class [2]: 1 (Class 1: The value of percent of control at 10^−7 M was less than 40% or the value of IC50 was less than 50 nM.)

CN(C)c1ccnc(N[C@H]2CC[C@@H](NC(=O)c3ccc(Cl)s3)CC2)n1 [compound 816]
class [4]: 3 (Class 3 The value of percent of control at 10^−7 M was more than 60% or the value of IC50 was more than 200 nM.)

Cc1ccc(C(=O)c2ccccc2C(=O)N[C@H]2CC[C@@H](Nc3nc4c(c(N(C)C)n3)CCCC4)CC2)cc1 [compound 1035]
class [7]: 3 (Class 3 The value of percent of control at 10^−7 M was more than 60% or the value of IC50 was more than 200 nM.)

CC(Oc1ccccc1)C(=O)N[C@H]1CC[C@@H](Nc2nccc(N(C)C)n2)CC1 (relative stereo) [compound 267]
class [4]: 3 (Class 3 The value of percent of control at 10^−7 M was more than 60% or the value of IC50 was more than 200 nM.)

Cc1nc(C(=O)N[C@H]2CC[C@@H](Nc3nc(C)c(C)c(N(C)C)n3)CC2)co1 [compound 2830, N-(cis-4-{[4-(dimethylamino)-5,6-dimethylpyrimidin-2-yl]amino}cyclohexyl)-2-methyl-1,3-oxazole-4-carboxamide]
class [1]: 2 (Class 2: The value of percent of control at 10^−7 M was from 40% to 60% or the value of IC′50 was from 50 nM to 200 nM.)
